Assay results from ChEMBL document CHEMBL6078680, “Improving the Stability and Anti-Infective Activity of Sea Turtle AMPs Using Multiple Structural Modification Strategies” (J Med Chem, 2024).
Active and inactive are the calls of the source. The calls are words filed in the database; no cut-off is given here. Starred links: 1 amine or outer side, 2 acyl side, 3 side chain; linkers in the order of their positions; H or OH if unused. Positions of bridges follow the written chain, without caps; N, C: chain ends. Non-standard residues stand in square brackets, D forms with d. Residues, ends and D or L forms follow the SMILES beside them. X2 = C[C@](CCCCCCCC=[*:3])(N[*:1])C(=O)[*:2]; X1 = C[C@@](CCCCC=[*:3])(N[*:1])C(=O)[*:2]

Legend:
Peritoneal macrophage [1] = experiment: Antiinflammatory activity in mouse Peritoneal macrophage cells assessed as inhibition of LPS-induced TNF-alpha production at 20 microg/ml incubated for 6 hrs by ELISA analysis; assay type: functional, cell-based; conditions: dose 20.0 µg/ml
Staphylococcus aureus = experiment: Antimicrobial activity against Staphylococcus aureus CMCC 26003 at 5 times MIC measured at 180 mins; assay type: functional, organism-based
HaCaT = experiment: Cytotoxicity against human HaCaT cells assessed as survival rate at 100 microg/ml; assay type: functional; conditions: read-out: Survival
Peritoneal macrophage [2] = experiment: Cytotoxicity against mouse Peritoneal macrophage cells assessed as survival rate at 100 microg/ml; assay type: functional; conditions: read-out: Survival
[3] = Hemolytic activity at human Erythrocyte assessed as hemolysis at 100 microg/ml; assay type: toxicity, cell-based; conditions: erythrocytes, at 100 µg/mL, read-out: Activity
Peritoneal macrophage [4] = experiment: Antiinflammatory activity in mouse Peritoneal macrophage cells assessed as inhibition of LPS-induced IL-6 production at 20 microg/ml incubated for 6 hrs by ELISA analysis; assay type: functional, cell-based; conditions: dose 20.0 µg/ml
4T1 = experiment: Cytotoxicity against mouse 4T1 cells assessed as survival rate at 100 microg/ml; assay type: functional; conditions: read-out: Survival
Peritoneal macrophage [5] = experiment: Cytotoxicity against mouse Peritoneal macrophage cells assessed as decrease in cell number at 20 microg/ml; assay type: functional, cell-based; conditions: dose 20.0 µg/ml
B16-F10 = experiment: Cytotoxicity against mouse B16-F10 cells assessed as survival rate at 100 microg/ml; assay type: functional; conditions: read-out: Survival

Compound | Activity (Peritoneal macrophage [1]) | Activity (Staphylococcus aureus) | viability at 100 µg/mL (HaCaT) | viability at 100 µg/mL (Peritoneal macrophage [2]) | hemolysis at 100 microg/ml [3] | Activity (Peritoneal macrophage [4]) | viability at 100 µg/mL (4T1) | Activity (Peritoneal macrophage [5]) | viability at 100 µg/mL (B16-F10)
CC[C@H](C)[C@@H]1NC(=O)[C@H](CCCNC(=N)N)NC(=O)[C@H](CO)NC(=O)[C@H](Cc2c[nH]cn2)NC(=O)[C@H](CCCNC(=N)N)NC(=O)[C@H](CC(C)C)NC(=O)[C@H](C(C)C)NC(=O)[C@H](CCCNC(=N)N)NC(=O)CNC(=O)[C@H](CC(C)C)NC(=O)[C@H](CCC(N)=O)NC(=O)[C@H](CCCCN)NC(=O)[C@H](CCCNC(=N)N)NC(=O)[C@H](C(C)C)NC(=O)[C@H](CCCCN)NC(=O)[C@H](CCCCN)NC(=O)[C@H](Cc2ccccc2)NC(=O)[C@@H](N)CSSC[C@@H](C(=O)O)NC(=O)[C@H](Cc2ccccc2)NC(=O)[C@H](CCCNC(=N)N)NC(=O)[C@H](CCSC)NC(=O)[C@H](CCCNC(=N)N)NC(=O)CNC(=O)CNC(=O)[C@H](C(C)C)NC(=O)[C@H]([C@@H](C)O)NC1=O (H-CFKKVRKQLGRVLRHSRITVGGRMRFC-OH; disulfide 1-27) | Active | inactive | > 80% | > 80% | < 5% | Active |  |  | 
CC[C@H](C)[C@H](NC(=O)[C@H](CCCNC(=N)N)NC(=O)[C@H](CO)NC(=O)[C@H](Cc1c[nH]cn1)NC(=O)[C@H](CCCNC(=N)N)NC(=O)[C@H](CC(C)C)NC(=O)[C@@H](NC(=O)[C@@H]1CSSC[C@H](NC(=O)[C@@H](NC(=O)[C@H](CCCCN)NC(=O)[C@H](CCCCN)NC(=O)[C@@H](N)Cc2ccccc2)C(C)C)C(=O)N[C@@H](CCCNC(=N)N)C(=O)N[C@@H](CCCCN)C(=O)N[C@@H](CCC(N)=O)C(=O)N[C@@H](CC(C)C)C(=O)NCC(=O)N[C@@H](CCCNC(=N)N)C(=O)N1)C(C)C)C(=O)N[C@H](C(=O)N[C@H](C(=O)NCC(=O)NCC(=O)N[C@@H](CCCNC(=N)N)C(=O)N[C@@H](CCSC)C(=O)N[C@@H](CCCNC(=N)N)C(=O)N[C@@H](Cc1ccccc1)C(=O)O)C(C)C)[C@@H](C)O (H-FKKVCRKQLGRCVLRHSRITVGGRMRF-OH; disulfide 5-12) | Active | inactive | > 80% | > 80% | < 5% | Active |  |  | 
CC[C@H](C)[C@H](NC(=O)[C@H](CCCNC(=N)N)NC(=O)[C@H](CO)NC(=O)[C@H](Cc1c[nH]cn1)NC(=O)[C@H](CCCNC(=N)N)NC(=O)[C@]1(C)CCCC/C=C\CCCC[C@](C)(NC(=O)[C@H](CCC(N)=O)NC(=O)[C@H](CCCCN)NC(=O)[C@H](CCCNC(=N)N)NC(=O)[C@@H](NC(=O)[C@H](CCCCN)NC(=O)[C@H](CCCCN)NC(=O)[C@@H](N)Cc2ccccc2)C(C)C)C(=O)NCC(=O)N[C@@H](CCCNC(=N)N)C(=O)N[C@@H](C(C)C)C(=O)N1)C(=O)N[C@H](C(=O)N[C@H](C(=O)NCC(=O)NCC(=O)N[C@@H](CCCNC(=N)N)C(=O)N[C@@H](CCSC)C(=O)N[C@@H](CCCNC(=N)N)C(=O)N[C@@H](Cc1ccccc1)C(=O)O)C(C)C)[C@@H](C)O (H-FKKVRKQ[X1]GRV[X1]RHSRITVGGRMRF-OH; staple (Z) 8-12) | Active | inactive |  |  | < 5% | Active |  |  | 
CC[C@H](C)[C@H](NC(=O)[C@H](CCCNC(=N)N)NC(=O)[C@H](CO)NC(=O)[C@H](Cc1c[nH]cn1)NC(=O)[C@]1(C)CCCC/C=C\CCCCCCC[C@@](C)(NC(=O)[C@H](CCCNC(=N)N)NC(=O)[C@@H](NC(=O)[C@H](CCCCN)NC(=O)[C@H](CCCCN)NC(=O)[C@@H](N)Cc2ccccc2)C(C)C)C(=O)N[C@@H](CCC(N)=O)C(=O)N[C@@H](CC(C)C)C(=O)NCC(=O)N[C@@H](CCCNC(=N)N)C(=O)N[C@@H](C(C)C)C(=O)N[C@@H](CC(C)C)C(=O)N1)C(=O)N[C@H](C(=O)N[C@H](C(=O)NCC(=O)NCC(=O)N[C@@H](CCCNC(=N)N)C(=O)N[C@@H](CCSC)C(=O)N[C@@H](CCCNC(=N)N)C(=O)N[C@@H](Cc1ccccc1)C(=O)O)C(C)C)[C@@H](C)O (H-FKKVR[X2]QLGRVL[X1]HSRITVGGRMRF-OH; staple (Z) 6-13) | Active | inactive |  |  | < 5% | Active |  |  | 
CC[C@H](C)[C@H](NC(=O)[C@H](CCCNC(=N)N)NC(=O)[C@H](CO)NC(=O)[C@H](Cc1c[nH]cn1)NC(=O)[C@H](CCCNC(=N)N)NC(=O)[C@H](CC(C)C)NC(=O)[C@@H](NC(=O)[C@H](CCCNC(=N)N)NC(=O)CNC(=O)[C@]1(C)CCCC/C=C\CCCC[C@](C)(NC(=O)[C@H](CCCCN)NC(=O)[C@H](CCCCN)NC(=O)[C@@H](N)Cc2ccccc2)C(=O)N[C@@H](CCCNC(=N)N)C(=O)N[C@@H](CCCCN)C(=O)N[C@@H](CCC(N)=O)C(=O)N1)C(C)C)C(=O)N[C@H](C(=O)N[C@H](C(=O)NCC(=O)NCC(=O)N[C@@H](CCCNC(=N)N)C(=O)N[C@@H](CCSC)C(=O)N[C@@H](CCCNC(=N)N)C(=O)N[C@@H](Cc1ccccc1)C(=O)O)C(C)C)[C@@H](C)O (H-FKK[X1]RKQ[X1]GRVLRHSRITVGGRMRF-OH; staple (Z) 4-8) | Active | inactive |  |  | < 5% | Active |  |  | 
CC[C@H](C)[C@H](NC(=O)[C@H](CCCNC(=N)N)NC(=O)[C@H](CO)NC(=O)[C@H](Cc1c[nH]cn1)NC(=O)[C@H](CCCNC(=N)N)NC(=O)[C@H](CC(C)C)NC(=O)[C@@H](NC(=O)[C@H](CCCNC(=N)N)NC(=O)CNC(=O)[C@H](CC(C)C)NC(=O)[C@H](CCC(N)=O)NC(=O)[C@]1(C)CCCC/C=C\CCCC[C@](C)(NC(=O)[C@@H](N)Cc2ccccc2)C(=O)N[C@@H](CCCCN)C(=O)N[C@@H](C(C)C)C(=O)N[C@@H](CCCNC(=N)N)C(=O)N1)C(C)C)C(=O)N[C@H](C(=O)N[C@H](C(=O)NCC(=O)NCC(=O)N[C@@H](CCCNC(=N)N)C(=O)N[C@@H](CCSC)C(=O)N[C@@H](CCCNC(=N)N)C(=O)N[C@@H](Cc1ccccc1)C(=O)O)C(C)C)[C@@H](C)O (H-F[X1]KVR[X1]QLGRVLRHSRITVGGRMRF-OH; staple (Z) 2-6) | Active | inactive |  |  | < 5% | Active |  |  | 
CC[C@H](C)[C@H](NC(=O)[C@H](CCCNC(=N)N)NC(=O)[C@H](CO)NC(=O)[C@H](Cc1c[nH]cn1)NC(=O)[C@H](CCCNC(=N)N)NC(=O)[C@H](CC(C)C)NC(=O)[C@@H](NC(=O)[C@H](CCCNC(=N)N)NC(=O)CNC(=O)[C@]1(C)CCCC/C=C\CCCCCCC[C@@](C)(N)C(=O)N[C@@H](CCCCN)C(=O)N[C@@H](CCCCN)C(=O)N[C@@H](C(C)C)C(=O)N[C@@H](CCCNC(=N)N)C(=O)N[C@@H](CCCCN)C(=O)N[C@@H](CCC(N)=O)C(=O)N1)C(C)C)C(=O)N[C@H](C(=O)N[C@H](C(=O)NCC(=O)NCC(=O)N[C@@H](CCCNC(=N)N)C(=O)N[C@@H](CCSC)C(=O)N[C@@H](CCCNC(=N)N)C(=O)N[C@@H](Cc1ccccc1)C(=O)O)C(C)C)[C@@H](C)O (H-[X2]KKVRKQ[X1]GRVLRHSRITVGGRMRF-OH; staple (Z) 1-8) | Active | inactive |  |  | < 5% | Active |  |  | 
H-FGRFFKKVRKQLGRVLRHSRITVGGRMRF-OH | Active | inactive |  |  |  | Active | < 40% | Active | 
H-GRVLRHSRITVGGRMRF-OH |  | inactive |  |  |  |  |  |  | 
H-KVRKQLGRVLRHSRITVGGRMRF-OH |  | inactive |  |  |  |  |  |  | 
H-QLGRVLRHSRITVGGRMRF-OH |  | inactive |  |  |  |  |  |  | 
H-RFFKKVRKQLGRVLRHSRITVGGRMRF-OH | Active | inactive |  |  |  | Active | < 40% | Active | 
H-RHSRITVGGRMRF-OH |  | inactive |  |  |  |  |  |  | 
H-RKQLGRVLRHSRITVGGRMRF-OH |  | inactive |  |  |  |  |  |  | 
H-RRSRFGRFFKKVR-NH2 |  | inactive |  |  |  |  |  |  | 
H-RRSRFGRFFKKVRKQ-NH2 |  | inactive |  |  |  |  |  |  | 
H-RRSRFGRFFKKVRKQLG-NH2 |  | inactive | 80% | 80% |  |  | < 40% |  | < 40%
H-RRSRFGRFFKKVRKQLGRV-NH2 |  | inactive | 80% | 80% |  |  | < 40% |  | < 40%
H-RRSRFGRFFKKVRKQLGRVLR-NH2 | Active | inactive | 80% | 80% |  | Active | < 40% | Active | < 40%
H-RRSRFGRFFKKVRKQLGRVLRHS-NH2 | Active | inactive | 80% | 80% |  | Active | < 40% | Active | < 40%
H-RRSRFGRFFKKVRKQLGRVLRHSRITV-NH2 | Active | inactive | 80% | 80% |  | Active | < 40% | Active | < 40%
H-RRSRFGRFFKKVRKQLGRVLRHSRITVGG-NH2 | Active | inactive | 80% | 80% |  | Active | < 40% | Active | < 40%
H-RRSRFGRFFKKVRKQLGRVLRHSRITVGGRMRF-OH |  | inactive |  |  |  |  |  |  | 
H-SRFGRFFKKVRKQLGRVLRHSRITVGGRMRF-OH | Active | inactive |  |  |  | Active | < 40% | Active | 
H-VLRHSRITVGGRMRF-OH |  | inactive |  |  |  |  |  |  | 
